Laboratory results: US20130150377A1, “Tetrahydropyridinyl and Dihydropyrrolyl Compounds and the Use Thereof” (SHIONOGI & CO., LTD., priority 2008, published 2013)
Structures can show the parent of a compound that is named as a salt.

Biological target: T1, N-type calcium channel (NTCC) (Homo sapiens, UniProt Q00975)
T1 construct: endogenous in cells; host or cells: differentiated IMR32 cells (ATCC)
Test: FLIPR calcium mobilization assay for N-type calcium channel (differentiated IMR32 cells)
Assay type: cell-based
Settings: N-type calcium channel blockers, calcium mobilization in vitro assay
Description: Cell maintenance and differentiation. Unless noted otherwise, cell culture reagents were purchased from Mediatech of Herndon, Md. IMR32 cells (American Type Culture Collection, ATCC, Manassas, Va.) were routinely cultured in growth medium consisting of minimum essential medium containing 10% fetal bovine serum (FBS, Hyclone, Logan, Utah), 100 U/mL penicillin, 100 μg/mL streptomycin, 2 mM L-glutamine, 1 mM sodium pyruvate, and 1×MEM non-essential amino acids. 80-90% confluent flasks of cells were differentiated using the following differentiation medium: Growth medium plus 1 mM dibutyryl cyclic AMP (Sigma, St. Louis, Mo.), and 2.5 μM bromodeoxyuridine (Sigma). Cells were differentiated for 8 days by replacing differentiation medium every 2-3 days.
FLIPR Calcium Mobilization Assay for N-type Calcium Channel.
One day prior to performing this assay, differentiated IMR32 cells were treated with 1× CellStripper, and seeded on poly-D-lysine-coated 96-well clear-bottom black plates (Becton Dickinson, Franklin Lakes, N.J.) at 200,000 cells/well. On the day of the assay, the cell plates were washed with IMR32 buffer (127 mM NaCl, 1 mM KCl, 2 mM MgCl2, 700 μM NaH2PO4, 5 mM CaCl2, 5 mM NaHCO3, 8 mM HEPES, 10 mM glucose, pH 7.4), then pre-stimulated with KCl and loaded as follows: […] of IMR32 buffer, 0.05 mL of each compound tested diluted in IMR32 buffer containing 20 μM nitrendipine (Sigma), and 0.1 mL KCl dissolved in IMR32 buffer, plus Fluo-4 were added (3 μM final concentration, Molecular Probes, Eugene, Oreg.). Final test compound concentrations ranged from about 846 pM to about 17 μM, final nitrendipine concentration was 5 μM, and final KCl concentration was 90 mM. After 1 hour, the cells were washed twice with 0.05 mL of each compound tested in nitrendipine-containing IMR32 buffer (no KCl or Fluo-4), and then replaced with 0.1 mL of each compound tested in nitrendipine-containing IMR32 buffer. Plates were then transferred to a Fluorimetric Imaging Plate Reader (FLIPR^96, Molecular Devices, Inc., Sunnyvale, Calif.) for assay. The FLIPR measured basal Fluo-4 fluorescence for 315 seconds (i.e., 5 minutes and 15 seconds), then added 0.1 mL KCl agonist dissolved in IMR32 buffer and measured fluorescence for another 45 seconds. Final test compound concentrations on the cells after FLIPR read ranged from about 846 pM to about 17 μM, final nitrendipine concentration was 5 μM, and final KCl concentration was 90 mM. Data were collected over the entire time course and analyzed using Excel, Graph Pad Prism (version 3.02, Graph Pad, San Diego, Calif.), or an in-house non-linear regression analysis software.

T1 sequence (Q00975 whole entry): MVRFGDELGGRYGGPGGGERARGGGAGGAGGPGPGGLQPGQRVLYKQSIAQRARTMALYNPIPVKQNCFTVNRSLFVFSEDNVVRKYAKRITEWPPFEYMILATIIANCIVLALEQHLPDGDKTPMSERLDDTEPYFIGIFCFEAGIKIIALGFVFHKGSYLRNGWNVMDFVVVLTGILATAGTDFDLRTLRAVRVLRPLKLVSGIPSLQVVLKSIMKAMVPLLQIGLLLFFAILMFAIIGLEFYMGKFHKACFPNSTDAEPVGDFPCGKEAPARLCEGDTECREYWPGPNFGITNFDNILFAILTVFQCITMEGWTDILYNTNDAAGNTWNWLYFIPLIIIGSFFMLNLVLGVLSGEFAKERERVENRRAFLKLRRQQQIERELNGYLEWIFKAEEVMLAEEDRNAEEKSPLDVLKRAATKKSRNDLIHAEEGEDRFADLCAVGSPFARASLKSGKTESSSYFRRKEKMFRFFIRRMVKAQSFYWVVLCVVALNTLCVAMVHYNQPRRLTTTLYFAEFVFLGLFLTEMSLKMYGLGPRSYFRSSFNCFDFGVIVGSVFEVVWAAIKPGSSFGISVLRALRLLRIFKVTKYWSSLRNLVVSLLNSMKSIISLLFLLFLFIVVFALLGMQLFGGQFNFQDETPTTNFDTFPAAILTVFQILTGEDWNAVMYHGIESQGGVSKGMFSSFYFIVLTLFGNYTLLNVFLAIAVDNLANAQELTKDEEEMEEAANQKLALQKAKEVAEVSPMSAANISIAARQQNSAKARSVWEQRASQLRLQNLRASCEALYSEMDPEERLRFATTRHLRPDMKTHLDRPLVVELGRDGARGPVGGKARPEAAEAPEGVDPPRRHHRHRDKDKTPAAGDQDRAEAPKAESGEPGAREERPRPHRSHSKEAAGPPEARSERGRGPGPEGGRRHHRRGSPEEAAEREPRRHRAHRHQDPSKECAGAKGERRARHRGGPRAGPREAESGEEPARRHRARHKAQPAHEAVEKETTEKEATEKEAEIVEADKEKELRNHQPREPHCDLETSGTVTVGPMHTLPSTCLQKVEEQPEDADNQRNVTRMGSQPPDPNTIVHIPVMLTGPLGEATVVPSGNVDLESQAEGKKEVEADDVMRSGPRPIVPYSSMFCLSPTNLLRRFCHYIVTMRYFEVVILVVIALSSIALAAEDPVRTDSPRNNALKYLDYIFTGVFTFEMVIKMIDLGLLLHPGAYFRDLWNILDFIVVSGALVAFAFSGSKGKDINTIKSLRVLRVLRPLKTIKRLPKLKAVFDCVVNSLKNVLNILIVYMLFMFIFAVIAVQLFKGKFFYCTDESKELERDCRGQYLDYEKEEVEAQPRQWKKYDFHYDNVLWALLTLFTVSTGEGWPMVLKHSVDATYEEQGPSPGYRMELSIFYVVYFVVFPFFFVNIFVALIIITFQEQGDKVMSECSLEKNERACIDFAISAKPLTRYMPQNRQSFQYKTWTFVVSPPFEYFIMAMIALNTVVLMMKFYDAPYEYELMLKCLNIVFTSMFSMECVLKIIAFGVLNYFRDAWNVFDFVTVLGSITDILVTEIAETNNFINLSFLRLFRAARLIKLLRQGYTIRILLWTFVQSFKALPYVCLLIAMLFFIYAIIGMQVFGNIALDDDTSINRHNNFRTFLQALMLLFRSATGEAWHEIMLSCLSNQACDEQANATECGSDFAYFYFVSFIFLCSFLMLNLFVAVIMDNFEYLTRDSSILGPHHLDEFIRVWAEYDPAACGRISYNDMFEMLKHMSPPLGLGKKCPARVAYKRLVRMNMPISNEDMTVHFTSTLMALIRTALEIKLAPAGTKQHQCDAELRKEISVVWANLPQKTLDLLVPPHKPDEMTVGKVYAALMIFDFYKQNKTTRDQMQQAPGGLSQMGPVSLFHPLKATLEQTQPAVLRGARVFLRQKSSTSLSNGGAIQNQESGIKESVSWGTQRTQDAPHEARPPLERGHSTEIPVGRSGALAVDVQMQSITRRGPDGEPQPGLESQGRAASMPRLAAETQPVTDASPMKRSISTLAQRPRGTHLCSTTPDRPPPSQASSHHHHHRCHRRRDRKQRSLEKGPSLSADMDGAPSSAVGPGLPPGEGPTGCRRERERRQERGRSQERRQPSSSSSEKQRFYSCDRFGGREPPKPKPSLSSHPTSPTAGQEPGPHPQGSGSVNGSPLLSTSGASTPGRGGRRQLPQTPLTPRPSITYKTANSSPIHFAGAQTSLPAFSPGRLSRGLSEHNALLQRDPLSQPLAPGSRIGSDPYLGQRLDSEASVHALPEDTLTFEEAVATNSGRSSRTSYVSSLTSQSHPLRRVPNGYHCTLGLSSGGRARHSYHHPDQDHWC
T1 sequence (P54289 25-956 partner limits assumed): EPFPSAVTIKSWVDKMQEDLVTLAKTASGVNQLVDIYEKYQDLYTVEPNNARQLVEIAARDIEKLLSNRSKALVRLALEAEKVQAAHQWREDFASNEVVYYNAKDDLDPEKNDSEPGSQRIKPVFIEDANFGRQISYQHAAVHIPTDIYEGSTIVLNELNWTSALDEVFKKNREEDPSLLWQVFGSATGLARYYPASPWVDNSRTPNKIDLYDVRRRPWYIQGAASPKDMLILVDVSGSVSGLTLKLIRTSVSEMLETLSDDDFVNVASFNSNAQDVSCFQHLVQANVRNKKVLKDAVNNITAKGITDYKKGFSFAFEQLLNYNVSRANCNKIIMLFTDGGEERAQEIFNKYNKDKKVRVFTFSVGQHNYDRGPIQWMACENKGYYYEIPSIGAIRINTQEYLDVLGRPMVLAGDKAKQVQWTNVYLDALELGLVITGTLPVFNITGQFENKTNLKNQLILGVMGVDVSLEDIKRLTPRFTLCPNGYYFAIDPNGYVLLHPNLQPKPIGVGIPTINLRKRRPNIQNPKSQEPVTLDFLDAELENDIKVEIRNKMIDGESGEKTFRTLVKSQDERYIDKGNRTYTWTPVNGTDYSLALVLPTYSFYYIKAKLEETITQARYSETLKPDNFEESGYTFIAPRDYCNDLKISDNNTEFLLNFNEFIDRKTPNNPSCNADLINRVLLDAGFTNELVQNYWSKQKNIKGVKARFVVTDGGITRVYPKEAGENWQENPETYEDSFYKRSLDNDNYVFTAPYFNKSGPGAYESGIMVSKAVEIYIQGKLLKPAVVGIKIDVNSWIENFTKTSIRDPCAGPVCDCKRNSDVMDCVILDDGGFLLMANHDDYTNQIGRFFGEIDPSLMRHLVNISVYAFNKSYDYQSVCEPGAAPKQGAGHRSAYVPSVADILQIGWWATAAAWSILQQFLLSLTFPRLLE
T1 sequence (P54289 957-1103 partner limits assumed): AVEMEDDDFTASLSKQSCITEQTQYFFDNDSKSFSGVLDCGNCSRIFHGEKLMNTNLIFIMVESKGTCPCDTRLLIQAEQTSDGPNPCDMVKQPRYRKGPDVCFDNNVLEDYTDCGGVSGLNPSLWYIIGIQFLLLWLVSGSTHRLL
T1 sequence (P54284 whole entry partner): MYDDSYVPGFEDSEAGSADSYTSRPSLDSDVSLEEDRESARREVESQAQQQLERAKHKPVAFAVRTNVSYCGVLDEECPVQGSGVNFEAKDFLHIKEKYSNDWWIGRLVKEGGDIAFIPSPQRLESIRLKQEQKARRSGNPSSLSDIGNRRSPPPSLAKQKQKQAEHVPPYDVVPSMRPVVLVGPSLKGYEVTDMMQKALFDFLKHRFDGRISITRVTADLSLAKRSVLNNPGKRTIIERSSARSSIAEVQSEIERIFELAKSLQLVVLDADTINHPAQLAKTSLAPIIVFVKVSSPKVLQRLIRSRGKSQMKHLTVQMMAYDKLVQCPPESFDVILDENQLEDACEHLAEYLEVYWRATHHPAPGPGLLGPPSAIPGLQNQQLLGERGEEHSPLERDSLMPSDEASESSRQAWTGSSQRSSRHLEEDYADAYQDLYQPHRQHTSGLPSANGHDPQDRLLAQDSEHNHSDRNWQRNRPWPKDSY

`O=C(NC1CC1)c1cccc(C2=CCN(S(=O)(=O)c3ccsc3)CC2)n1` [1′-(Thiophen-3-ylsulfonyl)-1′,2′,3′,6′-tetrahydro-[2,4′]bipyridinyl-6-carboxylic acid cyclopropylamide] gave an IC50 of 1050 nM.
For `O=C(NCC1CC1)c1ccnc(C2=CCN(S(=O)(=O)c3cccc(C(F)(F)F)c3)CC2)n1` [2-[1-(3-Trifluoromethylbenzenesulfonyl)-1,2,3,6-tetrahydropyridin-4-yl]pyrimidine-4-carboxylic acid cyclopropylmethylamide], the IC50 was 130 nM.
Compound `O=C(NCC(F)(F)F)c1cccc(C2=CCN(S(=O)(=O)c3ccc(OC(F)(F)F)cc3)CC2)n1` [1′-(4-Trifluoromethoxybenzenesulfonyl)-1′,2′,3′,6′-tetrahydro-[2,4′]-bipyridinyl-6-carboxylic acid 2,2,2-trifluoroethylamide] has an IC50 of 430 nM.
Work on `O=C(NC1CC1)c1cccc(C2=CCN(C(CO)c3ccc(OC(F)(F)F)cc3)CC2)n1` (centres unmarked) [Compound 67, 1′-[2-Hydroxy-1-(4-trifluoromethoxyphenyl)ethyl]-1′,2′,3′,6-tetrahydro-[2,4′]bipyridinyl-6-carboxylic acid cyclopropylamide] yielded an IC50 of 1340 nM.
With `COC(=O)c1cccc(C2=CCN(S(=O)(=O)c3cccc(C(F)(F)F)c3)CC2)n1` [Compound 25, 1′-(3-Trifluoromethylbenzenesulfonyl)-1′,2′,3′,6′-tetrahydro-[2,4′]bipyridinyl-6-carboxylic acid methyl ester] the IC50 was 920 nM.
Compound `O=C(NC1CC1)c1cccc(C2=CCN(S(=O)(=O)c3cc(Cl)cc(Cl)c3)CC2)n1` [1′-(3,5-Dichlorobenzenesulfonyl)-1′,2′,3′,6′-tetrahydro-[2,4′]bipyridinyl-6-carboxylic acid cyclopropylamide] has an IC50 of 50 nM.
`N#Cc1cccc(C2=CCN(S(=O)(=O)c3cccc(C(F)(F)F)c3)CC2)n1` [Compound 32, 1′-(3-Trifluoromethylbenzenesulfonyl)-1′,2′,3′,6′-tetrahydro-[2,4′]bipyridinyl-6-carbonitrile] gave an IC50 of 1600 nM.
For `O=C(NC1CC1)c1cccc(C2=CCN(S(=O)(=O)C3CCCC3)CC2)n1` [1′-Cyclopentylsulfonyl-1′,2′,3′,6′-tetrahydro-[2,4′]bipyridinyl-6-carboxylic acid cyclopropylamide], the IC50 was 2700 nM.
With `O=C(NC1CC1)c1ccnc(C2=CCN(S(=O)(=O)c3ccc(OC(F)(F)F)cc3)CC2)n1` [2-[1-(4-Trifluoromethoxybenzenesulfonyl)-1,2,3,6-tetrahydropyridin-4-yl]pyrimidine-4-carboxylic acid cyclopropylamide] the IC50 was 240 nM.
Work on `O=C(NC1CC1)c1ccnc(C2=CCN(S(=O)(=O)c3cccc(C(F)(F)F)c3)CC2)n1` [Compound 39, 2-[1-(3-Trifluoromethylbenzenesulfonyl)-1,2,3,6-tetrahydropyridin-4-yl]pyrimidine-4-carboxylic acid cyclopropylamide] yielded an IC50 of 60 nM.
Compound `O=C(NCC1CC1)c1ncccc1C1=CCN(S(=O)(=O)c2ccc(OC(F)(F)F)cc2)CC1` [1′-(4-Trifluoromethoxybenzenesulfonyl)-1′,2′,3′,6′-tetrahydro-[3,4′]bipyridinyl-2-carboxylic acid cyclopropylmethylamide] has an IC50 of 690 nM.
For `O=C(NC1CC1)c1cccc(C2=CCN(S(=O)(=O)c3cccc(OC(F)(F)F)c3)CC2)n1` [1′-(3-Trifluoromethoxybenzenesulfonyl)-1′,2′,3′,6′-tetrahydro-[2,4′]bipyridinyl-6-carboxylic acid cyclopropylamide], the IC50 was 40 nM.
Work on `NC(=O)c1ccnc(C2=CCN(S(=O)(=O)c3ccc(OC(F)(F)F)cc3)CC2)n1` [Compound 15, 2-[1-(4-Trifluoromethoxybenzenesulfonyl)-1,2,3,6-tetrahydropyridin-4-yl]-pyrimidine-4-carboxylic acid amide] yielded an IC50 greater than 20000 nM.
`O=C(NC1CC1)c1cccc(C2=CCN(C(c3ccc(OC(F)(F)F)cc3)C(F)(F)F)CC2)n1` (centres unmarked) [Compound 64, 1′-[2,2,2-Trifluoro-1-(4-trifluoromethoxyphenyl)ethyl]-1′,2′,3′,6′-tetrahydro-[2,4′]bipyridinyl-6-carboxylic acid cyclopropylamide] gave an IC50 of 320 nM.
`O=C(NC1CC1)c1cccc(C2=CCN(S(=O)(=O)c3cccc(Cl)c3)CC2)n1` [1′-(3-Chlorobenzenesulfonyl)-1′,2′,3′,6′-tetrahydro-[2,4′]bipyridinyl-6-carboxylic acid cyclopropylamide] gave an IC50 of 80 nM.
`O=C(NCC(F)(F)F)c1cccc(C2=CCN(S(=O)(=O)c3cccc(C(F)(F)F)c3)CC2)n1` [1′-(3-Trifluoromethylbenzenesulfonyl)-1′,2′,3′,6′-tetrahydro-[2,4′]-bipyridinyl-6-carboxylic acid 2,2,2-trifluoroethylamide] showed an IC50 of 30 nM.
In the case of `N#Cc1cccc(S(=O)(=O)N2CC=C(c3cccc(C(=O)NC4CC4)n3)CC2)c1` [1′-(3-Cyanobenzenesulfonyl)-1′,2′,3′,6′-tetrahydro-[2,4′]bipyridinyl-6-carboxylic acid cyclopropylamide], the IC50 is reported as 50 nM.
`O=C(NC1CC1)c1cccc(C2=CCN(S(=O)(=O)C3CCCCC3)CC2)n1` [1′-Cyclohexylsulfonyl-1′,2′,3′,6′-tetrahydro-[2,4′]bipyridinyl-6-carboxylic acid cyclopropylamide] showed an IC50 of 320 nM.
`O=C(NCC1CC1)c1ncccc1C1=CCN(S(=O)(=O)c2cccc(C(F)(F)F)c2)CC1` [1′-(3-Trifluoromethylbenzenesulfonyl)-1′,2′,3′,6′-tetrahydro-[3,4′]bipyridinyl-2-carboxylic acid cyclopropylmethylamide] gave an IC50 of 140 nM.
For `O=C(NC1CC1)c1coc(C2=CCN(S(=O)(=O)c3ccc(OC(F)(F)F)cc3)CC2)n1` [Compound 61, 2-[1-(4-Trifluoromethoxybenzenesulfonyl)-1,2,3,6-tetrahydropyridin-4-yl]oxazole-4-carboxylic acid cyclopropylamide], the IC50 was 320 nM.
Work on `O=C(NC1CC1)c1nc(C2=CCN(S(=O)(=O)c3ccc(OC(F)(F)F)cc3)CC2)ccc1Cl` [5-Chloro-1′-(4-trifluoromethoxybenzenesulfonyl)-1′,2′,3′,6′-tetrahydro-[2,4′]bipyridinyl-6-carboxylic acid cyclopropylamide] yielded an IC50 of 490 nM.
For `O=C(NC1CC1)c1cccc(C2=CCN(S(=O)(=O)c3c(F)cc(F)cc3F)CC2)n1` [1′-(2,4,6-Trifluorobenzenesulfonyl)-1′,2′,3′,6′-tetrahydro-[2,4′]bipyridinyl-6-carboxylic acid cyclopropylamide], the IC50 was 990 nM.
`O=C(O)c1cccc(C2=CCN(S(=O)(=O)c3cccc(C(F)(F)F)c3)CC2)n1` [Compound 26, 1′-(3-Trifluoromethylbenzenesulfonyl)-1′,2′,3′,6′-tetrahydro-[2,4′]bipyridinyl-6-carboxylic acid] showed an IC50 greater than 20000 nM.
In the case of `CC(C)CS(=O)(=O)N1CC=C(c2cccc(C(=O)NC3CC3)n2)CC1` [1′-(2-Methylprop-1-ylsulfonyl)-1′,2′,3′,6′-tetrahydro-[2,4′]bipyridinyl-6-carboxylic acid cyclopropylamide], the IC50 is reported as 1460 nM.
With `O=C(NC1CC1)c1cccc(C2=CCN(Cc3cc(C(F)(F)F)no3)CC2)n1` [Compound 76, N-Cyclopropyl-6-{1-[(3-trifluoromethylisoxazol-5-yl)methyl]-1,2,3,6-tetrahydropyridin-4-yl}picolinamide hydrochloride] the IC50 was 2760 nM.
`O=C(NC1CC1)c1cccc(C2=CCN(S(=O)(=O)c3ccccn3)CC2)n1` [1′-(Pyridin-2-ylsulfonyl)-1′,2′,3′,6′-tetrahydro-[2,4′]bipyridinyl-6-carboxylic acid cyclopropylamide] gave an IC50 of 9920 nM.
`O=C(NC1CC1)c1cccc(C2=CCN(S(=O)(=O)c3ccc(F)cc3)CC2)n1` [1′-(4-Fluorobenzenesulfonyl)-1′,2′,3′,6′-tetrahydro-[2,4′]bipyridinyl-6-carboxylic acid cyclopropylamide] was tested, and the IC50 was 350 nM.
`O=S(=O)(c1cccc(C(F)(F)F)c1)N1CC=C(c2cccc(CO)n2)CC1` [1′-(3-Trifluoromethylbenzenesulfonyl)-1′,2′,3′,6′--tetrahydro-[2,4′]bipyridinyl-6-yl]methanol] gave an IC50 of 4240 nM.
In the case of `O=C(NC1CC1)c1cccc(C2=CCN(S(=O)(=O)CCC(F)(F)F)CC2)n1` [1′-(3,3,3-Trifluoropropylsulfonyl)-1′,2′,3′,6′-tetrahydro-[2,4′]bipyridinyl-6-carboxylic acid cyclopropylamide], the IC50 is reported as 3100 nM.
